Experimental data from US20240174980A1, “PROCESS FOR MANUFACTURE OF A COMPOSITION FOR THE TREATMENT OF OSTEOARTHRITIS IN A SUBJECT” (STEM CELLX EUROPE KFT, priority 2021, published 2024).

System: GADD45, CEBPb and MMP13 expression in differentiating canine MSCs
Test: Expression of hypertrophic chondrocyte markers (relative RNA levels) during chondrogenic differentiation
Format: cell-based
Conditions: relative RNA levels at days 10 and 24 of chondrogenic differentiation
Protocol: (§1) 1B depicts the experiment in which we added 30 ng/ml kynurenine to the differentiating MSCs to examine its effect on the markers of hypertrophic chondrocytes. In the experiment, we measured the expression of the two main regulatory transcription factors of hypertrophic chondrocyte differentiation, factors GADD45 and CEBPb, and of their target, matrix metalloproteinase-13 (MMP13), by measuring their relative RNA levels on days 10 (early) and 24 (mature) of chondrogenic differentiation.
as §1, with “2B” for “1B”, “50” for “30”, “THBS1” for “kynurenine”
During the analysis, first we quantified the levels of KYNA produced in canine AD-MSCs derived from 8 independent donations by ELISA in passage 3 cultures. […]
In another analysis, we quantified the levels of THBS1 produced in the AD-MSCs derived from 8 independent donations by ELISA in passage 3 cultures. […]

Compound | Effect on hypertrophic chondrocyte phenotype (expression of GADD45, CEBPb and MMP13) (50 ng/ml THBS1 added at day 7) | Effect on hypertrophic chondrocyte phenotype (expression of GADD45, CEBPb and MMP13) (30 ng/ml KYNA added at day 7)
THBS1: Thrombospondin 1, adhesive glycoprotein encoded by the THBS1 gene, added to differentiating MSCs at 50 ng/ml | sufficient to suppress the hypertrophic chondrocyte phenotype | –
Nc1ccccc1C(=O)CC(N)C(=O)O (centres unmarked) [KYNA, kynurenine] | – | able to suppress the hypertrophic chondrocyte phenotype
